{
  "source": "paper PMC12027554",
  "about": "“Inhibition of ABCG2 by SCO-101 Enhances Chemotherapy Efficacy in Cancer” (International Journal of Molecular Sciences, 2025)",
  "key": {"[1]": {"target": "other members of the UGT family", "experiment": "Inhibition of glucuronidation activity of other UGT family enzymes", "assay_type": "biochemical", "conditions": "Figure S3F"}, "[2]": {"test_system": "HT29SN-38 cells", "experiment": "3H-SN-38 uptake in cell monolayers", "assay_type": "cell-based, human", "conditions": "HT29SN-38 monolayers", "procedure": "Cells were seeded at a density of 1.8 × 10^4 cells/well in 96-well plates and sub-cultured for 48 h. Drugs were dissolved in HBSS transport buffer (HBSS, 0.05% BSA, 10 mM HEPES, pH 7.4) at different concentrations. All treatments were investigated in technical triplicates. On the day of the experiments, the culture medium was exchanged with 100 μL transport buffer and cells incubated for 15 min at 37 °C. Next, the blank transport buffer was exchanged with 50 μL transport buffer containing the different compounds (2X of final concentrations) and incubated for an additional 15 min at 37 °C. The uptake experiment was started by adding 50 μL of 2 μCi/mL ^3H-SN38 and stopped after 15 min of incubation at 37 °C by removing the transport buffer from all wells. Cell monolayers were washed twice by adding/removing ice-cold transport buffer and lysed for 15 min at RT in 100 μL 0.1% TritonX-100. Cell lysates were transferred to scintillation vials containing 2 mL of scintillation fluid (Ultima Gold, PerkinElmer). Each well was washed with 100 μL purified water (milliQ), which was also transferred to respective scintillation vials. The radioactivity in each scintillation vial was measured by means of scintillation counting (Tri-Carb 2910 TR, PerkinElmer, Waltham, MA, USA)."}, "[3]": {"test_system": "SCH cells", "experiment": "Cell viability assay (CellTiter-Glo), SCH", "assay_type": "cell-based", "conditions": "96 h", "procedure": "(§1) Cells were seeded at a density of 0.2–1 × 10^4 cells/well into 96-well plates. One day after seeding, treatments were performed in triplicate for 72 h, or as otherwise indicated in the relevant panel/figure legend and kept at 37 °C/5% CO2. Growth medium alone (“untreated” cells) or DMSO was used as a control.\n(§2) For SCH, SNU-5, and MKN45 cells, 50 μL of CellTiter-Glo® Reagent (Promega; Madison, WI, USA) was added to each well at the end of the treatments. The content was mixed for 5 min to facilitate cell lysis and plates incubated at room temperature for 10 min to stabilize luminescent signals, which were then recorded using an EnVision Multi Label Reader (PerkinElmer; Waltham, MA, USA).\n(§3) Background values were subtracted prior to further analysis. The percentage of cell viability was expressed as relative values versus untreated cells as determined by the various assays. EC50/IC50 values were calculated using GraphPad Prism (v10.4.1) and the in-built non-linear regression [log (inhibitor) vs. response—variable slope (four parameters)] calculation. […] Synergy scores were calculated using the ZIP model, which takes the advantages of both the Loewe additivity and the Bliss independence models, aiming at a systematic assessment of various types of drug interaction patterns that may arise in a high-throughput drug combination screening."}, "[4]": {"test_system": "MKN45 cells", "experiment": "Cell viability assay (CellTiter-Glo), MKN45", "assay_type": "cell-based", "conditions": "Homo sapiens, MKN-45, 96 h", "procedure": "as §1, §2, §3"}, "[5]": {"test_system": "PANC-1MX100 cells", "experiment": "Cell viability assay, mitoxantrone-resistant PANC-1", "assay_type": "cell-based, human", "conditions": "SCO-101 20 µM, 72 h", "procedure": "as §1\nFor MTT assays, media were replaced at the final timepoint with 100 μL of 1:10 MTT reagent (0.5 mg/mL in PBS) diluted in growth medium, and plates were incubated for 3 h. A total of 100 μL/well of stop buffer (50 g Sodium Dodecyl Sulfate, 245 mL ddH2O, 5 mL 1N HCl) was added and plates incubated for 24 h to let colored formazan crystals develop. Optical densities (ODs) were measured with a PowerWave^TM Microplate spectrophotometer (BioTek, Winooski, VT, USA) at 570 nm and 670 nm (background).\nBackground values were subtracted prior to further analysis. The percentage of cell viability was expressed as relative values versus untreated cells as determined by the various assays. EC50/IC50 values were calculated using GraphPad Prism (v10.4.1) and the in-built non-linear regression [log (inhibitor) vs. response—variable slope (four parameters)] calculation. For determination of synergy scores, the online tool SynergyFinder+ (https://synergyfinder.org access date 15 February 2025) was employed following 4 × 4- or 6 × 6-matrix dose-escalation cell viability experiments. […]"}, "[6]": {"design": "method as in PMID 32628359", "conditions": "four independent Phase I studies; cited from earlier work"}},
  "data": [
    {"smiles": "O=C(Nc1cc(C(F)(F)F)cc(C(F)(F)F)c1)Nc1ccc(Br)cc1-c1nnn[nH]1", "note": "[SCO-101, N-[4-Bromo-2-(1H-1,2,3,4-tetrazol-5-yl)phenyl]-N′-[3,5-bis(trifluoromethyl)phenyl]urea]", "values": [
      {"measurement": "IC50 for other members of the UGT family compared with UGT1A1", "setting": "[1]", "value": "higher IC50 values"},
      {"measurement": "cellular accumulation of 3H-SN-38", "setting": "[2]; SCO-101 25 µM, Ko-143 0.5 µM, ZSQ 0.5 µM, vs control (HBSS)", "value": "greater than those of Ko-143-treated cells"},
      {"measurement": "EC50", "setting": "[2]; Homo sapiens, read-out: EC50, 3H-SN-38 uptake (regarded as IC50 of ABCG2 inhibition)", "value": 6.4, "unit": "µM"},
      {"measurement": "IC50", "setting": "[3]", "value": "> 50", "unit": "µM"},
      {"measurement": "IC50", "setting": "[4]", "value": "> 50", "unit": "µM"},
      {"measurement": "cell viability, SCO-101 combined with mitoxantrone or SN-38", "setting": "[5]", "value": "re-sensitized"},
      {"measurement": "toxicity", "setting": "[6]", "value": "low SCO-101 toxicity"}
    ]}
  ]
}
